Measured values taken from patent US9695155B2, “Herbicidal substituted pyrimidinyloxy benzene compounds” (E. I. DU PONT DE NEMOURS AND COMPANY, priority 2013, dated 2017).

Columns and labels:
galium = assay: Test D postemergence; assay type: in vivo, Galium aparine
Excerpt: (§1) Seeds of plant species selected from bluegrass (annual bluegrass, Poa annua), blackgrass (Alopecurus myosuroides), canarygrass (littleseed canarygrass, Phalaris minor), chickweed (common chickweed, Stellaria media), galium (catchweed bedstraw, Galium aparine), bromegrass, downy (downy bromegrass, Bromus tectorum), field poppy (Papaver rhoeas), field violet (Viola arvensis), green foxtail (Setaria viridis), deadnettle (henbit deadnettle, Lamium amplexicaule), Italian ryegrass (Lolium multiflorum), kochia (Kochia scoparia), lambsquarters (Chenopodium album), oilseed rape (Brassica napus), pigweed (Amaranthus retroflexus), chamomile (scentless chamomile, Matricaria inodora), Russian thistle (Salsola kali), speedwell (bird's-eye speedwell, Veronica persica), spring barley (Hordeum vulgare), spring wheat (Triticum aestivum), wild buckwheat (Polygonum convolvulus), wild mustard (Sinapis arvensis), wild oat (Avena fatua), wild radish (Raphanus raphanistrum), windgrass (Apera spica-venti), winter barley (Hordeum vulgare), and winter wheat (Triticum aestivum) were planted into a silt loam soil and treated preemergence with test chemicals formulated in a non-phytotoxic solvent mixture which included a surfactant.
(§2) At the same time, these species were planted in pots containing Redi-Earth® planting medium (Scotts Company, 14111 Scottslawn Road, Marysville, Ohio 43041) comprising spaghnum peat moss, vermiculite, wetting agent and starter nutrients and treated with postemergence applications of the test chemicals formulated in the same manner. Plants ranged in height from 2 to 18 cm (1- to 4-leaf stage). Treated plants and controls were maintained in a controlled growth environment for 7 to 21 days after which time all species were compared to controls and visually evaluated. Plant response ratings, summarized in Table D, are based on a scale of 0 to 100 where 0 is no effect and 100 is complete control. A dash (-) response means no test result.

green foxtail = assay: Test D preemergence; assay type: in vivo, Setaria viridis
Excerpt: as §1, §2

windgrass = assay: Test D postemergence; assay type: in vivo, Apera spica-venti
Excerpt: as §1, §2

canarygrass = assay: Test D postemergence; assay type: in vivo, Phalaris minor
Excerpt: as §1, §2

chickweed = assay: Test D preemergence; assay type: in vivo, Stellaria media
Excerpt: as §1, §2

bromegrass, downy = assay: Test D postemergence; assay type: in vivo, Bromus tectorum
Excerpt: as §1, §2

kochia = assay: Test D postemergence; assay type: in vivo, Kochia scoparia
Excerpt: as §1, §2

lambsquarters = assay: Test D postemergence; assay type: in vivo, Chenopodium album
Excerpt: as §1, §2

blackgrass = assay: Test D preemergence; assay type: in vivo, Alopecurus myosuroides
Excerpt: as §1, §2

wild buckwheat = assay: Test D postemergence; assay type: in vivo, Polygonum convolvulus
Excerpt: as §1, §2

wild mustard = assay: Test D postemergence; assay type: in vivo, Sinapis arvensis
Excerpt: as §1, §2

[1] = 31 g ai/ha, scale 0 to 100 (0 no effect, 100 complete control)
[2] = 62 g ai/ha, scale 0 to 100 (0 no effect, 100 complete control)
[3] = 125 g ai/ha, scale 0 to 100 (0 no effect, 100 complete control)
[4] = 250 g ai/ha, scale 0 to 100 (0 no effect, 100 complete control)
[5] = 16 g ai/ha, scale 0 (no effect) to 100 (complete control)
[6] = Postemergence, 62 g ai/ha, scale 0 to 100 (0 no effect, 100 complete control)
[7] = Postemergence, 31 g ai/ha, scale 0 to 100 (0 no effect, 100 complete control)
[8] = Postemergence, 125 g ai/ha, scale 0 to 100 (0 no effect, 100 complete control)
[9] = Postemergence, 250 g ai/ha, scale 0 to 100 (0 no effect, 100 complete control)
[10] = postemergence, 16 g ai/ha, scale 0 to 100, 0 no effect, 100 complete control

Clc1cnc(Oc2ccccc2-n2cc(Cl)cn2)nc1 [Compound 3]
Plant response rating, Galium (galium; 16 g ai/ha, scale 0-100): 40 | Plant response rating, Galium (galium; [1]): 30 | Plant response rating, Galium (galium; [2]): 40 | Plant response rating, Galium (galium; [3]): 45 | Plant response rating, Galium (galium; [4]): 75 | Plant response rating, Foxtail, Green (green foxtail; [5]): 10 | Plant response rating, Foxtail, Green (green foxtail; 62 g ai/ha, scale 0-100): 10 | Plant response rating, Foxtail, Green (green foxtail; 125 g ai/ha, scale 0-100): 10 | Plant response rating, Foxtail, Green (green foxtail; 250 g ai/ha, scale 0-100): 30 | Plant response rating, Windgrass (windgrass; 16 g ai/ha, scale 0-100): 70 | Plant response rating, Windgrass (windgrass; [1]): 0 | Plant response rating, Windgrass (windgrass; [2]): 0 | Plant response rating, Windgrass (windgrass; [3]): 0 | Plant response rating, Windgrass (windgrass; [4]): 10 | Plant response rating, Canarygrass (canarygrass; 16 g ai/ha, scale 0-100): 30 | Plant response rating, Canarygrass (canarygrass; [1]): 0 | Plant response rating, Canarygrass (canarygrass; [2]): 0 | Plant response rating, Canarygrass (canarygrass; [3]): 0 | Plant response rating, Canarygrass (canarygrass; [4]): 10 | Plant response rating, Chickweed (chickweed; [5]): 0 | Plant response rating, Chickweed (chickweed; 62 g ai/ha, scale 0-100): 0 | Plant response rating, Chickweed (chickweed; 250 g ai/ha, scale 0-100): 90 | Plant response rating, Bromegrass, Downy (bromegrass, downy; [6]): 0 | Plant response rating, Bromegrass, Downy (bromegrass, downy; [7]): 0 | Plant response rating, Bromegrass, Downy (bromegrass, downy; [8]): 0 | Plant response rating, Bromegrass, Downy (bromegrass, downy; [9]): 0 | Plant response rating, Bromegrass, Downy (bromegrass, downy; [10]): 50 | Plant response rating, Kochia (kochia; 16 g ai/ha, scale 0-100): 20 | Plant response rating, Kochia (kochia; [1]): 5 | Plant response rating, Kochia (kochia; [2]): 5 | Plant response rating, Kochia (kochia; [3]): 25 | Plant response rating, Kochia (kochia; [4]): 55 | Plant response rating, Lambsquarters (lambsquarters; 16 g ai/ha, scale 0-100): 25 | Plant response rating, Lambsquarters (lambsquarters; [1]): 20 | Plant response rating, Lambsquarters (lambsquarters; [2]): 60 | Plant response rating, Lambsquarters (lambsquarters; [3]): 80 | Plant response rating, Lambsquarters (lambsquarters; [4]): 85 | Plant response rating, Blackgrass (blackgrass; [5]): 0 | Plant response rating, Blackgrass (blackgrass; 31 g ai/ha, scale 0-100): 0 | Plant response rating, Blackgrass (blackgrass; 62 g ai/ha, scale 0-100): 0 | Plant response rating, Blackgrass (blackgrass; 125 g ai/ha, scale 0-100): 0 | Plant response rating, Blackgrass (blackgrass; 250 g ai/ha, scale 0-100): 0 | Plant response rating, Buckwheat, Wild (wild buckwheat; [6]): 50 | Plant response rating, Buckwheat, Wild (wild buckwheat; [7]): 10 | Plant response rating, Buckwheat, Wild (wild buckwheat; [8]): 60 | Plant response rating, Buckwheat, Wild (wild buckwheat; [9]): 80 | Plant response rating, Buckwheat, Wild (wild buckwheat; [10]): 50 | Plant response rating, Mustard, Wild (wild mustard; 16 g ai/ha, scale 0-100): 75 | Plant response rating, Mustard, Wild (wild mustard; [1]): 20 | Plant response rating, Mustard, Wild (wild mustard; [2]): 35 | Plant response rating, Mustard, Wild (wild mustard; [3]): 35 | Plant response rating, Mustard, Wild (wild mustard; [4]): 85
